Columns and labels:
[1] = system: MCL1 protein in MDAMB453 cells; test: Western blot of BCL2 family proteins, MDAMB453; type: cell-based, human; conditions: 50 nM or 100 nM, 24 hours
Experimental: (§1) Cytotoxic cancer cell lines HCC70 and TOV21G, and cytostatic cancer cell lines T47D and COV318 were seeded in wells of a six-well dish at a density of 1×10^6 cells/well and allowed to adhere overnight. Cells were then treated with 50 nM of Compound 1 for 16 or 24 hours, or with DMSO (0 hours) representing a negative control. Cells were harvested and placed on ice, and resuspended in RIPA lysis buffer supplemented with protease and phosphatase inhibitors. Clarified lysates prepared with 4×LSD running buffer and boiled at 95° C. for 5 minutes. Equivalent amounts of sample (10 μg total protein) were run on a 4-12% Bis-Tris gel and transferred to a PDVF membrane for Western blotting using standard Western blotting protocols. Membranes were blocked with Licor TBS blocking buffer then probed with antibodies for BCL-XL, BCL-2, MCL1, BID, and GAPDH visualized using and Odyssey imager (FIGS. 23A and 23D).
(§2) In a similar experiment, TNBC breast cancer cell lines HCC70, MDAMB468, MDAMB453 and CAL-120 were grown as described above and treated with DMSO, 50 nM Compound 1 or 100 nM Compound 1 for 24 hours. Protein samples were prepared as described above for Western blotting using antibodies specific for the indicated proteins in FIG. 29A. […]

[2] = system: MCL1 protein in CAL-120 cells; test: Western blot of BCL2 family proteins, CAL-120; type: cell-based, human; conditions: 50 nM or 100 nM, 24 hours
Experimental: as §1, §2

[3] = system: MCL1 protein in MV411 cells; test: Western blot, AML cell line MV411; type: cell-based; conditions: 50 nM
Experimental: as §1
We next explored the expression of MCL1, BCL-XL and BCL2 in four different AML cell lines. MV411, OCI-AML3 and KG1 cells were separately grown and prepared as described in Example 2 for Western blotting, using antibodies specific for BCL2 (FIG. 24A), BCL-XL, MCL-1 and tubulin as an internal control (FIG. 24B).

HCC70 xenografts = test: Subcutaneous HCC70 xenograft, tumor volume; type: in vivo, mouse; conditions: 40 mg/kg i.v. twice weekly (BIW), vehicle: increase in tumor volume
Experimental: Subcutaneous HCC70 xenografts were established in BALC/c nude mice at ChemPartner (Shanghai, China). Each mouse was inoculated subcutaneously in the right flank with 5×10^6 HCC70 cells (ATCC, CAT #: CRL-2315) in 0.2 ml of a 1:1 mixture of base medium and Matrigel. Tumor sizes were measured in two dimensions using a caliper, and the volumes were expressed in mm^3 using the formula: V=0.5 a×b^2 where a and b are the longest and shortest diameters of the tumor, respectively. Compound 1 treatment was started when the average tumor size reached 181 mm^3.
Compound 1 was formulated in w/v 20% Captisol (pH 4-6) and administered by i.v. twice weekly (BIW) at a final dose of 40 mg/kg in a 10 ml/kg volume. Mice in the vehicle arm were given the same dosing schedules, volumes, and formulations, but lacking Compound 1. Tumor volumes were measured twice weekly over the course of the study.

BR5010 xenografts = test: TNBC patient-derived xenograft BR5010, tumor volume; type: in vivo, mouse; conditions: 40 mg/kg or 30 mg/kg i.v. BIW
Experimental: Patient-derived xenograft (PDX) models from TNBC patients (BR5010, BR5013, BR5015, and BR5023) were established in NOD-SCID mice at Crown Bioscience (San Diego, USA). Cryo vials containing tumor cells were thawed and prepared for injection into mice. Cells were washed in PBS, counted, and resuspended in cold PBS at a concentration of 50,000-100,000 viable cells/100 ul. Cell suspensions were mixed with an equal volume of Cultrex ECM and kept on ice during transport to the vivarium. Cells were prepared for injections by withdrawing ECM-Cell mixture into a chilled slip-tip syringe fitted with a 26G 7/8 (0.5 mm×22 mm) needle. The filled syringes were kept on ice to avoid the solidification of ECM. Each mouse was inoculated subcutaneously in the right flank with 200 uL of the cell suspension. Tumor sizes were measured in two dimensions using a caliper, and the volumes were expressed in mm^3 using the formula: V=0.5 a×b^2, where a and b are the longest and shortest diameters of the tumor, respectively. Compound 1 treatment was started when the average tumor size reached 150-200 mm^3.
Compound 1 was formulated in w/v 20% Captisol (pH 4-6) and administered by i.v. twice weekly (BIW) at a final dose of 40 mg/kg or 30 mg/kg in a 10 ml/kg volume. Tumor volumes were measured twice weekly over the course of the study. […]

[4] = system: homologous recombination deficiency / carboplatin sensitivity genes in COV318 cells; test: Nanostring PanCancer Pathways mRNA, COV318; type: cell-based; conditions: 50 nM, 16 hours
Experimental: Ovarian Cell lines OvCar3, TOV21G, A2780 and COV318 were plated at 500,000 cells/well in a 6-well plate the day before treatment. The next day the cells were treated with vehicle or 50 nM Compound 1 for 0, 6, or 16 hours after which cells were harvested and total RNA collected using RNeasy mini kit (Qiagen). Changes in mRNA between samples were analyzed with Nanostring™ PanCancer Pathways Panels specifically analyzing genes related to homologous recombination deficiency and carboplatin sensitivity (ie. BRCA1, BRCA2, Rad51, ATM, ATR, MSH2, MSH6). Nanostring signal intensities were first normalized to housekeeping genes across all cell lines, and then normalized to the 0 hour timepoint within a cell line.

AML xenografts = conditions: previously shown; cited from earlier work

CN(C)C/C=C/C(=O)Nc1ccc(C(=O)N[C@@]2(C)CCC[C@@H](Nc3ncc(Cl)c(-c4c[nH]c5ccccc45)n3)C2)nc1 [Compound 1, N-((1S,3R)-3-(5-chloro-4-(1H-indol-3-yl)pyrimidin-2-ylamino)-1-methylcyclohexyl)-5-((E)-4-(dimethylamino)but-2-enamido)picolinamide]
MCL1 protein level (Western blot) [1]: downregulated | MCL1 protein level (Western blot) [2]: downregulated | MCL1 protein level (Western blot) [3]: significant reduction in MCL1 | Tumor volume (HCC70 xenografts): reduction in tumor volume | Tumor growth vs untreated historical samples (BR5010 xenografts): consistently inhibited tumor growth | mRNA of genes related to homologous recombination deficiency and carboplatin sensitivity, all genes except Rad51 (BRCA1, BRCA2, ATM, ATR, MSH2, MSH6) [4]: downregulated | Anti-tumor activity (AML xenografts): anti-tumor activity

Source: US20200113902A1, “COMPOSITIONS AND METHODS FOR TREATING CANCERS WITH COVALENT INHIBITORS OF CYCLIN-DEPENDENT KINASE 7 (CDK7)” (Syros Pharmaceuticals, Inc., priority 2017, published 2020)
